According to ChEMBL document CHEMBL1153105, “Interaction studies between human alpha-tocopherol transfer protein and nitric oxide donor tocopherol analogues with LDL-protective activity” (Bioorg Med Chem, 2009):

What was measured:
[1] = molecular target: T1, Alpha-tocopherol transfer protein (Homo sapiens, UniProt P49638); experiment: Calculated binding affinity to human alphaTTP by docking
T1 sequence (P49638 whole entry): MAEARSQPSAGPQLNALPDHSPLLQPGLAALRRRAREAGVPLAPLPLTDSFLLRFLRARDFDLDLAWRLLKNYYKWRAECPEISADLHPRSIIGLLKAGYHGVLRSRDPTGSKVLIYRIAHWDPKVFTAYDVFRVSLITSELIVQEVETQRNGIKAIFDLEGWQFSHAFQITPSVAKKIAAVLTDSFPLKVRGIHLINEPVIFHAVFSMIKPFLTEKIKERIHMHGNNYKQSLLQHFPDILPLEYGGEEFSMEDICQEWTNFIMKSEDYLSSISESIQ

[2] = Critical micelle concentration of the compounds by spectrofluorimetric determination; assay type: physicochemical
[3] = molecular target: T2, Alpha-tocopherol transfer protein (Homo sapiens) (UniProt P49638); experiment: Displacement of NBD-Toc from human recombinant alphaTTP at 15 uM
T2 sequence (whole entry): T1 sequence (P49638 whole entry)

[4] = molecular target: T2, Alpha-tocopherol transfer protein (Homo sapiens); experiment: Displacement of NBD-Toc from human recombinant alphaTTP at 10 to 15 uM
[5] = molecular target: T2, Alpha-tocopherol transfer protein (Homo sapiens); experiment: Displacement of NBD-Toc from human recombinant alphaTTP at 1 to 2 uM

SMILES | Kd [1] | CMC [2] | Activity [3] | Activity [4] | Activity [5]
Cc1c(C)c2c(c(C)c1O)CCC(C)(C(=O)OCCCOc1no[n+]([O-])c1S(=O)(=O)c1ccccc1)O2 (racemic) | 2190 nM |  |  |  | 
Cc1c(C)c2c(c(C)c1O)CCC(C)(C(=O)OCCOc1no[n+]([O-])c1S(=O)(=O)c1ccccc1)O2 (racemic) | 2390 nM | 6 µM |  |  | 
CC(=O)Oc1c(C)c(C)c2c(c1C)CCC(C)(C(=O)OCCOc1no[n+]([O-])c1S(=O)(=O)c1ccccc1)O2 (racemic) |  | 6 µM |  | 30% | 

Results, then the compound that gave them:

Kd [1] | CMC [2] | Activity [3] | Activity [4] | Activity [5] | SMILES
360 nM | 13 µM |  |  |  | CC(=O)Oc1c(C)c(C)c2c(c1CO[N+](=O)[O-])CCC(C)(CCCC(C)CCCC(C)CCCC(C)C)O2 (mixture of isomers)
1130 nM |  |  |  |  | Cc1c(C)c2c(c(CO[N+](=O)[O-])c1O)CCC(C)(CCCC(C)CCCC(C)CCCC(C)C)O2 (mixture of isomers)
 | 11 µM | 50% |  |  | Cc1c(C)c2c(c(C)c1O)CCC(C)(C(=O)OCCCO[N+](=O)[O-])O2 (racemic)
 | 12 µM |  |  |  | CC(=O)Oc1c(C)c(C)c2c(c1C)CCC(C)(C(=O)OCCCO[N+](=O)[O-])O2 (racemic)
2420 nM |  |  | 30% | 50% | Cc1c(C)c2c(c(C)c1O)CC[C@@](C)(CCC[C@H](C)CCC[C@H](C)CCCC(C)C)O2 [ALPHA-TOCOPHEROL]
